Reference: PubChem BioAssay AID1159563 (GlaxoSmithKline (GSK), 2015)
Calls of active or inactive are those of the source. No rule for the calls is given here.

Tested on: HepG2 cytotoxicity
Experiment: HepG2 cell cytotoxicity, cytotoxicity control (AID 1159563)

Compound | IC50
CCc1cc(C(=O)Nc2nccn2-c2ccccc2)cs1 | > 100 µM (inactive)
CC(=O)Nc1ccc(CN2CCC(N3CC(c4ccccc4)(c4ccccc4)OCC3=O)CC2)cc1 | 79 µM
Cc1cccc(NS(=O)(=O)c2ccc3c(c2)C(=O)c2cc(S(=O)(=O)Nc4cccc(C)c4C)ccc2-3)c1C | > 100 µM (inactive)
N#Cc1cccc(Nc2nccc(N3CCC(NS(=O)(=O)c4cccc(C#N)c4)CC3)n2)c1 | 50 µM
CC(c1ccccn1)N(C)Cc1nc2ccccc2n1C(C)C (configuration not stated) | 25 µM
Cc1cc(Nc2cc(C3CC3)[nH]n2)nc(N2CCC[C@H]2C(N)=O)n1 | > 100 µM (inactive)
Cc1ccc(Nc2nc(N)nc(CNC(c3nc4ccccc4[nH]3)C(C)C)n2)cc1 (configuration not stated) | > 100 µM (inactive)
O=C1OCc2ccc(Nc3nccc(-c4cnn5ncccc45)n3)cc21 | > 100 µM (inactive)
O=C(Nc1cccc(Cl)c1)N1CCCCC1c1cccnc1 (configuration not stated) | > 100 µM (inactive)
O=C(Nc1cccc(F)c1)N1CCC(Oc2cccc(-c3cccnc3)c2)CC1 | > 100 µM (inactive)
Cc1cccc(Nc2nc(-c3ccccn3)cs2)n1 | 40 µM
O=C(c1cccc(Cl)c1Cl)N1CCn2c1nc(-c1ccncc1)cc2=O | > 100 µM (inactive)
O=C(c1cc2cc(Cl)ccc2[nH]1)N1CCCCC1c1cccnc1 (configuration not stated) | 40 µM
COc1cc(-c2nc(N3CCOCC3)sc2-c2ccnc(NC3CCOCC3)n2)ccc1Cl | > 100 µM (inactive)
O=c1ccc2ccc(F)c3c2n1C[C@H]3CN1CCN(CC(O)c2cc3c(cn2)OCS3)CC1 (some centres not stated) | > 100 µM (inactive)
COc1ccc(S(=O)(=O)Nc2ccc(C(=O)Nc3nc(-c4ccccn4)cs3)cc2)cc1 | 63 µM
O=[N+]([O-])c1ccc(-c2nnn(-c3cccnc3)n2)o1 | > 100 µM (inactive)
COc1cc(OC)cc(C(NS(=O)(=O)c2ccc(Cl)c(C(F)(F)F)c2)c2nccn2C)c1 (configuration not stated) | > 100 µM (inactive)
C=CCN(Cc1cccs1)C(=O)CSc1nnc(-c2ccc3c(c2)OCO3)o1 | > 100 µM (inactive)
O=c1[nH]c(C=Cc2cccc(OCCOc3ccccc3)c2)nc(O)c1[N+](=O)[O-] | > 100 µM (inactive)
Cc1cc(NC(=O)C2CCCCC2)n(-c2nc3c(c(=O)[nH]2)CCC3)n1 | 50 µM
CCOc1cc(NCCCN2CCN(C)CC2)c2ncccc2c1 | 32 µM
CCCc1nc2nc(N)nc(N)c2cc1CC | 20 µM
Oc1c(-c2n[nH]c(Cc3ccc(F)cc3)n2)ncc2cccnc12 | 25 µM
CS(=O)(=O)N1CCC(Nc2ncc(Br)c(Nc3cccc(F)c3C(N)=O)n2)CC1 | > 100 µM (inactive)
NCc1csc(Nc2cc(Oc3ccccc3)ncn2)n1 | > 100 µM (inactive)

Compound | IC50
Cn1nccc1NC(=O)Cn1ccc(-c2ccncc2)n1 | > 100 µM (inactive)
c1ccc(Nc2nc3ccccc3[nH]2)nc1 | 79 µM
CC(C)C[C@H](NC(=O)c1ccc(-c2ccccc2)o1)C(=O)NC1(C#N)CC1 | > 100 µM (inactive)
N#Cc1cccc(Cc2cc(Nc3cc(C4CC4)[nH]n3)nc(N3CC[C@H]3C(N)=O)n2)c1 | > 100 µM (inactive)
O=C(CSc1nnc(-c2ccc3c(c2)OCO3)o1)N(Cc1ccco1)CC(F)(F)F | > 100 µM (inactive)
O=C(Nc1n[nH]c(-c2ccccn2)n1)C1CC1c1ccccc1 (configuration not stated) | > 100 µM (inactive)
C=CC[C@@H]1CC=C[C@@H](C)N1C(=O)CCc1nnc(-c2ccc3c(c2)OCO3)o1 | > 100 µM (inactive)
CCCCn1c(=O)c2c(N)onc2n(CCCC)c1=O | 50 µM
CC(C)CC(=O)NC(c1cccs1)c1ccc2cccnc2c1O (configuration not stated) | > 100 µM (inactive)
CN(C)Cc1cccc(Nc2nccc(-c3ccc(NCCN)c(C#N)c3)n2)c1 | 25 µM
CCOc1ccc(Nc2ccc(S(=O)(=O)N3CCN(C)CC3)cc2[N+](=O)[O-])cc1OCC | > 100 µM (inactive)
O=C(COc1ccccc1)Nc1ccccc1C(=O)Nc1nccs1 | > 100 µM (inactive)
Cc1cc(Br)cc(C(=O)c2c(C(C)C)c(=O)[nH]c(=O)n2Cc2ccnc(N)c2)c1 | > 100 µM (inactive)
O=C(NC(CO)c1ccc(F)cc1)c1ccc(-c2c[nH]c3ncccc23)s1 (configuration not stated) | 40 µM
CN(C)Cc1ccc(-c2ccc(S(=O)(=O)NCC3CCCO3)c(F)c2)cc1 (configuration not stated) | > 130 µM (inactive)
CCN(CC)c1nc(Nc2ccncc2)nc2ccccc12 | 50 µM
CC(=O)Nc1ccc(-c2cnc(N)c(-c3nc4ccc(F)cc4[nH]3)c2)cc1 | 10 µM
Cc1ccccc1NS(=O)(=O)c1ccc2[nH]cc(C(=O)NC3CCCC3)c(=O)c2c1 | 25 µM
c1ccc(Nc2nc(-c3ccccn3)cc(N3CCOCC3)n2)cc1 | > 100 µM (inactive)
COc1ccc(S(=O)(=O)Nc2ccc(CN3CCN(C(=O)c4cccc(C#N)c4)CC3)cc2)cc1 | > 100 µM (inactive)
CC1(C)CCC(=Cc2ccc(Cl)cc2)CC1(O)Cn1ccnc1 (configuration not stated) | 50 µM
CNc1cncc(C2CCCN2C(=O)Cc2coc3cc(C)ccc23)n1 (configuration not stated) | > 100 µM (inactive)
O=C(Nc1nccs1)c1ccccc1Cn1cc([N+](=O)[O-])cn1 | > 100 µM (inactive)
CCOc1ccc(NC(=O)c2ccc(NC(=O)NC3CCCCC3)cc2)cc1 | > 100 µM (inactive)
C[C@@H](Oc1cc(-n2cnc3cc(N)ccc32)sc1C(N)=O)c1ccccc1Cl | 20 µM
CCCCn1nnnc1CSc1nc(C)cc(C)c1C#N | > 100 µM (inactive)

Compound | IC50
COc1ccc(Nc2nccc(N(C)c3n[nH]c4c(F)cccc34)n2)cc1S(C)(=O)=O | 20 µM
CC(C)(C)C(O)(CCc1ccc(Cl)cc1)Cn1cncn1 (configuration not stated) | > 100 µM (inactive)
CCN(CC)c1nc(N(C)C)nc2c1CN(Cc1ccccc1)CC2 | 63 µM
Fc1ccc(Nc2nc(-c3ccccn3)cs2)cc1 | > 100 µM (inactive)
Nc1nonc1-c1nc2cncc(C(=O)N3CC[C@H](N)C3)c2n1CC1CC1 | > 100 µM (inactive)
COCc1cc(Nc2ccc(Cl)cc2)nc(-c2ccccn2)n1 | 13 µM
CCCCN(C(=O)c1ccc(NC(=O)C(C)C)cc1)c1ccccc1 | > 100 µM (inactive)
Cc1ccccc1OCC(=O)N1CCCN(c2cccnn2)CC1 | > 100 µM (inactive)
Cc1c(C(=O)NCCCCn2ccnc2)oc2c(C)cccc12 | 79 µM
COc1ccc(NS(=O)(=O)c2ccc(S(=O)(=O)N(C)C3CCCCC3)cc2)c2ncccc12 | > 100 µM (inactive)
Nc1nc(-c2ccccn2)nc(-n2nc(-c3cccc(C(F)(F)F)c3)cc2N)n1 | 20 µM
CCCN1CCN(Cc2ccc(S(=O)(=O)Nc3cccc(C)c3)cc2)CC1 | > 100 µM (inactive)
CC(C)Nc1nc(Cl)nc2ccccc12 | 40 µM
O=c1cc(NCCCNCc2c[nH]c3ccc(Br)cc23)[nH]c2ccccc12 | > 100 µM (inactive)
COc1ccc(C2CC(c3ccccc3Cl)=NN2C(=O)CNC(=O)C2CCCC2)cc1 (configuration not stated) | > 100 µM (inactive)
CC1CN(S(=O)(=O)c2ccc(NC(=O)c3cc(C4CC4)nc4c3cnn4C(C)C)cc2)CC(C)O1 (configuration not stated) | > 100 µM (inactive)
Cc1nc(-c2nc(NCc3ccc(Cl)cc3)c3cccnc3c2O)n[nH]1 | 16 µM
CN(C)c1ccc(-c2cc3nccnc3c(OC[C@H]3CCCNC3)n2)cn1 | 63 µM
CN(C)Cc1ccc(N2CCC(NS(=O)(=O)c3ccc(Cl)cc3)CC2)cc1 | 50 µM
Cc1ccc2nc(N(Cc3cccnc3)C(=O)CCc3ccccc3)sc2c1 | > 100 µM (inactive)
CC(C)(C)Nc1nc(Nc2ccc3c(c2)CS(=O)(=O)C3)nc2[nH]ccc12 | 32 µM
Cc1nn(-c2nc(N)nc(-c3ccccn3)n2)c(N)c1-c1ccccc1 | 63 µM
Cc1cc(C)cc(NS(=O)(=O)c2cc(-c3cc(C)[nH]n3)ccc2C)c1 | 63 µM
O=C(Nc1nc2ccccc2[nH]1)c1ccc2nc[nH]c2c1 | 50 µM
O=c1cc(NCCCNCc2cc(C(F)(F)F)cs2)[nH]c2ccccc12 | 63 µM
NC(=O)c1ccccc1Nc1nc(NC2CCCCC2)nc2[nH]ccc12 | 20 µM

Compound | IC50
O=C(c1ccc(OCCCc2cnc[nH]2)cc1)C1CC1 | > 100 µM (inactive)
O=C(O)[C@H]1C[C@@H]1c1ccc(-c2ccc(CN(CCc3ccccn3)C(=O)C3CCC3)cc2)cc1 | > 100 µM (inactive)
O=C(c1cnn(-c2ccccc2)n1)N1CCCC(n2ccnc2)C1 (configuration not stated) | > 100 µM (inactive)
COc1ccc(C(C)N(C)c2ncc3c(N)nc(N)nc3n2)cc1F (configuration not stated) | > 100 µM (inactive)
Cc1cc2nc(CN(C)Cc3ncccc3C)[nH]c2cc1C | 40 µM
O=C(Nc1ccc(S(=O)(=O)N2CCCC2)cc1)c1ccc([N+](=O)[O-])s1 | 6.3 µM
COc1cc(Nc2nccc(Nc3onc(C)c3C)n2)cc(S(=O)(=O)C2CCOCC2)c1 | 32 µM
Cn1nc([N+](=O)[O-])nc1N1CCCCC1 | > 100 µM (inactive)
O=C(Nc1ccc(-c2nc3ccccc3c(=O)[nH]2)cc1)c1cccs1 | > 100 µM (inactive)
O=c1cc(CSc2ccc(Cl)cc2)nc(-c2ccccn2)[nH]1 | > 100 µM (inactive)
CS(=O)(=O)c1ccccc1C(=O)N(Cc1ccccc1)c1ccccc1 | > 100 µM (inactive)
O=C(Nc1ccccc1C(=O)Nc1ccccn1)c1ccco1 | > 100 µM (inactive)
COc1ncc(-c2ccc3nccc(-c4ccncc4)c3c2)cc1NS(C)(=O)=O | > 100 µM (inactive)
O=C(NCCc1ccccn1)C(c1cn[nH]c1)N1CCN(c2ccc(Cl)c(Cl)c2)CC1 (configuration not stated) | > 100 µM (inactive)
Cc1c(Nc2cc(C3CC3)[nH]n2)ccc(C#N)c1Cl | 40 µM
OCCCNc1nc(Nc2ccncc2)nc2ccccc12 | > 100 µM (inactive)
CC1(Oc2cncc(Cl)c2)CCN(Cc2cc3ccccc3[nH]2)C1 (configuration not stated) | 32 µM
Cc1cn[nH]c1C1CCCN(Cc2nc3ccccc3n2C)C1 (configuration not stated) | 50 µM
CC(C)(C)CC(=O)NCc1noc(COc2ccccc2)n1 | > 100 µM (inactive)
Cc1ccc(NC(=O)c2ccnc(N3CCCC3)c2)cc1-c1ccsc1C(N)=O | > 100 µM (inactive)
Cc1ccc(S(C)(=O)=O)cc1Nc1nccc(-c2sc(N)nc2-c2ccccc2)n1 | 32 µM
CC(C)(C)C(=O)Nc1cc(C2CC2)nn1-c1nc2c(c(=O)[nH]1)CCCC2 | > 100 µM (inactive)
O=C(NCc1nnc2n1CCCCC2)c1csc(-c2ccccc2)n1 | > 100 µM (inactive)
COc1cccc(C(=O)[C@H]2C[C@@H]2CN(Cc2cccnc2)Cc2cccnc2)c1 | > 100 µM (inactive)
